From ChEMBL document CHEMBL1177756, “Design and synthesis of 1,4,5,6-tetrahydropyrrolo[3,4-c]pyrazoles and pyrazolo[3,4-b]pyridines for Aurora-A kinase inhibitors” (Bioorg Med Chem Lett, 2010) come the findings set out here.

Each structure is given as a SMILES string.

Holding throughout (format): functional, cell-based
One assay concerns HCT-116. In words: Cytotoxicity against human HCT116 cells after 48 hrs by MTT assay. The note with it: HCT-116, 48 h. A general note: Tetrazolium assays rely on reduction of a dye to a coloured formazan, in cell work by metabolically active cells.
In a further assay the test system is A549. Description: Cytotoxicity against human A549 cells after 48 hrs by MTT assay. Particulars: A549, 48 h.
Another assay deals with A2780. In words: Cytotoxicity against human A2780 cells after 48 hrs by MTT assay. The note with it: A2780, 48 h.

In the case of `Cc1ccc(C(=O)Nc2n[nH]c3c2CN(C(=O)c2ccccn2)C3)cc1`, the IC50 in the assay on HCT-116, in the assay on A549 and in the assay on A2780 was over 200 µM in each case.

On to `CC(=O)N1Cc2[nH]nc(NC(=O)c3ccc4ccccc4c3)c2C1`, for which the 50% inhibitory concentration (IC50) with HCT-116, in the assay with A549 and in the assay with A2780 was over 200 µM throughout.

Consider `Cc1ccccc1C(=O)Nc1n[nH]c2ncc(Br)cc12`, for which the half-inhibitory concentration (IC50) was 51.5 µM in the assay on HCT-116, over 200 µM in the assay on A549 and over 200 µM in the assay with A2780.

Turning to `COc1cc(OC)cc(C(=O)Nc2n[nH]c3c2CN(C(=O)c2ccccn2)C3)c1`, the IC50 in the assay with HCT-116 is 236 µM; in the assay with A549 it was over 200 µM; with A2780 it was over 200 µM.

Consider `O=C(Nc1n[nH]c2c1CN(C(=O)[C@@H](O)c1ccccc1)C2)c1ccc2c(c1)OCO2`, for which the IC50 is 135 µM with HCT-116, 84 µM in the assay with A549 and over 200 µM with A2780.

As to `CO[C@H](C(=O)N1Cc2[nH]nc(NC(=O)c3ccc4c(c3)OCO4)c2C1)c1ccccc1`, the half-inhibitory concentration (IC50) in the assay with HCT-116, with A549 and with A2780 was over 200 µM in each case.

In the case of `O=C(Nc1n[nH]c2c1CN(C(=O)c1ccccn1)C2)c1ccc2c(c1)OCO2`, the 50% inhibitory concentration (IC50) in the assay with HCT-116 was over 200 µM; in the assay with A549, 118 µM; with A2780 it was over 200 µM.

For the molecule `O=C(Nc1n[nH]c2ncc(Br)cc12)c1cc(Cl)cc(Cl)c1`, the concentration for half-maximal inhibition (IC50) in the assay on HCT-116 is 49.2 µM; with A549 it was over 200 µM; with A2780, over 200 µM.

On to `COc1cc(OC)cc(C(=O)Nc2n[nH]c3ncc(Br)cc23)c1`, for which the figures for the IC50 in the assay on HCT-116, in the assay with A549 and with A2780 were 19.3 µM, 53.7 µM and 37.9 µM, respectively.

For `CC(=O)c1ncccc1N1Cc2[nH]nc(NC(=O)c3ccc4c(c3)OCO4)c2C1`, the 50% inhibitory concentration (IC50) with HCT-116, in the assay with A549 and with A2780 was over 200 µM each time.

Regarding `CO[C@H](C(=O)N1Cc2[nH]nc(NC(=O)c3ccc4ccccc4c3)c2C1)c1ccccc1`, the IC50 was 38 µM with HCT-116, 16 µM in the assay with A549 and 23 µM in the assay on A2780.

Turning to `O=C(Nc1n[nH]c2ncc(Br)cc12)c1ccc(C(F)(F)F)cc1`, the 50% inhibitory concentration (IC50) in the assay with HCT-116 was 21.9 µM; with A549 it was over 200 µM; in the assay with A2780 it was over 200 µM.

In the case of `O=C(Nc1n[nH]c2ncc(Br)cc12)c1ccc(F)cc1`, the IC50 in the assay with HCT-116 was 44.1 µM; in the assay with A549, over 200 µM; with A2780, 50 µM.

Turning to `COc1ccc(C(=O)Nc2n[nH]c3ncc(Br)cc23)cc1`, the IC50 was 24.9 µM in the assay on HCT-116, over 200 µM with A549 and over 200 µM in the assay with A2780.

For `COc1ccccc1C(=O)Nc1n[nH]c2ncc(Br)cc12`, the results for the IC50 in the assay on HCT-116, in the assay with A549 and in the assay on A2780 were 15.6 µM, over 200 µM and 27 µM, respectively.

Take `O=C(Nc1n[nH]c2ncc(Br)cc12)c1ccccc1C(F)(F)F`: the IC50 is 40.3 µM with HCT-116, 75.1 µM with A549 and over 200 µM with A2780.

`Cc1ccc(C(=O)Nc2n[nH]c3c2CN(C(=O)[C@@H](O)c2ccccc2)C3)cc1`: the IC50 in the assay on HCT-116 is 13 µM; in the assay with A549, 42 µM; in the assay with A2780, 82 µM.

As to `CO[C@H](C(=O)N1Cc2[nH]nc(NC(=O)c3ccco3)c2C1)c1ccccc1`, the 50% inhibitory concentration (IC50) in the assay with HCT-116, in the assay on A549 and in the assay with A2780 was over 200 µM throughout.

Consider `Cc1ccc(C(=O)N2Cc3[nH]nc(NC(=O)c4ccco4)c3C2)cc1`, for which the IC50 in the assay on HCT-116, in the assay with A549 and with A2780 was over 200 µM in each case.

As to `CC(=O)O[C@H](C(=O)N1Cc2[nH]nc(NC(=O)c3cc4c(c(OCc5ccccc5)c3)OCO4)c2C1)c1ccccc1`, the half-inhibitory concentration (IC50) in the assay on HCT-116, in the assay with A549 and in the assay on A2780 was over 200 µM throughout.

Turning to `O=C(Nc1n[nH]c2c1CN(C(=O)[C@@H](O)c1ccccc1)C2)c1ccco1`, the IC50 in the assay with HCT-116 worked out at 4 µM; in the assay with A549, 25 µM; in the assay on A2780 it was 35 µM.

For `O=C(Nc1n[nH]c2ncc(Br)cc12)c1ccccc1Cl`, the IC50 was 32.3 µM in the assay with HCT-116, over 200 µM with A549 and 46.7 µM in the assay with A2780.

As for `COc1ccc(C(=O)Nc2n[nH]c3c2CN(C(=O)c2ccccn2)C3)cc1`, the half-inhibitory concentration (IC50) with HCT-116, in the assay with A549 and in the assay with A2780 was over 200 µM each time.

In the case of `COc1cc(OC)cc(C(=O)Nc2n[nH]c3c2CN(C(=O)[C@@H](OC)c2ccccc2)C3)c1`, the IC50 with HCT-116 is 103 µM; in the assay with A549, 99 µM; with A2780 it was over 200 µM.

Consider `Cc1ccc(C(=O)Nc2n[nH]c3ncc(Br)cc23)cc1`, for which the IC50 with HCT-116 is 39.8 µM; in the assay with A549, over 200 µM; in the assay on A2780, over 200 µM.

Take `Cc1cccc(C(=O)Nc2n[nH]c3ncc(Br)cc23)c1`: the values for the half-inhibitory concentration (IC50) in the assay with HCT-116, in the assay on A549 and in the assay with A2780 were 25.5 µM, over 200 µM and 49.9 µM, respectively.

With `O=C(Nc1n[nH]c2ncc(Br)cc12)c1ccc(Cl)cc1`, the IC50 came out at 34.7 µM in the assay with HCT-116, 51.4 µM in the assay with A549 and 51.6 µM in the assay on A2780.

For the molecule `O=C(Nc1n[nH]c2ncc(Br)cc12)c1ccco1`, the concentration for half-maximal inhibition (IC50) was 43.5 µM with HCT-116, 61.9 µM in the assay on A549 and 42 µM in the assay on A2780.

`O=C(Cc1ccc(Br)cc1)Nc1n[nH]c2ncc(Br)cc12`: the results for the IC50 in the assay with HCT-116, in the assay with A549 and with A2780 were 31.7 µM, 43.1 µM and 22.8 µM, respectively.

On to `COc1cc(OC)cc(C(=O)Nc2n[nH]c3c2CN(C(=O)[C@@H](O)c2ccccc2)C3)c1`, for which the IC50 in the assay with HCT-116 was 143 µM; in the assay on A549, 76 µM; in the assay on A2780 it was over 200 µM.

On to `COc1cc(OC)cc(C(=O)Nc2n[nH]c3c2CN(c2cccnc2C(C)=O)C3)c1`, for which the IC50 in the assay on HCT-116 was 107 µM; with A549, 161 µM; in the assay with A2780, over 200 µM.

Turning to `CC(=O)c1ncccc1N1Cc2[nH]nc(NC(=O)c3ccccc3)c2C1`, the IC50 in the assay on HCT-116 is 168 µM; in the assay on A549 it was 175 µM; in the assay with A2780 it was over 200 µM.

For `CO[C@H](C(=O)N1Cc2[nH]nc(NC(=O)c3cc4c(c(OCc5ccccc5)c3)OCO4)c2C1)c1ccccc1`, the half-inhibitory concentration (IC50) in the assay on HCT-116, with A549 and in the assay on A2780 was over 200 µM throughout.

Regarding `Cc1cccnc1C(=O)Nc1n[nH]c2ncc(Br)cc12`, the IC50 is 23 µM with HCT-116, over 200 µM in the assay with A549 and over 200 µM with A2780.

In the case of `O=C(Nc1n[nH]c2ncc(Br)cc12)c1ccccn1`, the IC50 in the assay on HCT-116 was determined as 14.3 µM; in the assay with A549 it was 45.2 µM; in the assay with A2780, 46.5 µM.

Consider `CO[C@H](C(=O)N1Cc2[nH]nc(NC(=O)c3ccccc3)c2C1)c1ccccc1`, for which the 50% inhibitory concentration (IC50) in the assay on HCT-116 is 26 µM; in the assay with A549, over 200 µM; with A2780 it was over 200 µM.

With `O=C(Nc1n[nH]c2c1CN(C(=O)c1ccco1)C2)c1ccc2ccccc2c1`, the half-maximal inhibitory concentration (IC50) with HCT-116 amounted to 45 µM; in the assay on A549, 34 µM; in the assay on A2780, 54 µM.

Consider `Cc1ccc(C(=O)N2Cc3[nH]nc(NC(=O)c4ccc5ccccc5c4)c3C2)cc1`, for which the IC50 with HCT-116, with A549 and in the assay on A2780 was over 200 µM each time.

For the molecule `O=C(Nc1n[nH]c2c1CN(C(=O)c1ccccn1)C2)c1cc2c(c(OCc3ccccc3)c1)OCO2`, the IC50 in the assay on HCT-116 is 104 µM; with A549, over 200 µM; in the assay on A2780, over 200 µM.

For the molecule `COc1ccc(C(=O)Nc2n[nH]c3c2CN(C(=O)[C@@H](OC)c2ccccc2)C3)cc1`, the values for the half-maximal inhibitory concentration (IC50) in the assay with HCT-116, in the assay on A549 and in the assay with A2780 were 207 µM, 72 µM and over 200 µM, respectively.

For `CO[C@H](C(=O)N1Cc2[nH]nc(NC(=O)c3ccc(N4CCN(C)CC4)cc3)c2C1)c1ccccc1`, the 50% inhibitory concentration (IC50) stood at 13 µM with HCT-116, 43 µM with A549 and 11 µM in the assay on A2780.

What is called IC50 is the point on the concentration scale where inhibition reaches its midpoint. High values mean weaker potency, low ones greater potency.
